We go through 18 compounds from patent publication US20210269434A1, “TRICYCLIC COMPOUNDS AS INHIBITORS OF KRAS” (Incyte Corporation, priority 2020, published 2021).

The target of one assay is KRAS G12C (Homo sapiens, UniProt P01116, G12C). As to the kind of experiment: GDP-GTP exchange assay (KRAS_G12C exchange). Type of assay: biochemical. The note with it: bodipy-GDP loaded KRAS G12C 2.5 nM, SOS1 150 nM, GppNHp; 2 hours pre-incubation, 2 hours reaction; read-out: G12C_exchange. Here is the method:
Example A. GDP-GTP Exchange Assay
The inhibitor potency of the exemplified compounds was determined in a fluorescence based guanine nucleotide exchange assay, which measures the exchange of bodipy-GDP (fluorescently labeled GDP) for GppNHp (Non-hydrolyzable GTP analog) to generate the active state of KRAS in the presence of SOS1 (guanine nucleotide exchange factor). Inhibitors were serially diluted in DMSO and a volume of 0.1 μL was transferred to the wells of a black low volume 384-well plate. 5 μL/well volume of bodipy-loaded KRAS G12C diluted to 5 nM in assay buffer (25 mM Hepes pH 7.5, 50 mM NaCl, 10 mM MgCl2 and 0.01% Brij-35) was added to the plate and pre-incubated with inhibitor for 2 hours at ambient temperature. Appropriate controls (enzyme with no inhibitor or with a G12C inhibitor (AMG-510)) were included on the plate. The exchange was initiated by the addition of a 5 μL/well volume containing 1 mM GppNHp and 300 nM SOS1 in assay buffer. The 10 μL/well reaction concentration of the bodipy-loaded KRAS G12C, GppNHp, and SOS1 were 2.5 nM, 500 uM, and 150 nM, respectively. The reaction plates were incubated at ambient temperature for 2 hours, a time estimated for complete GDP-GTP exchange in the absence of inhibitor. For the KRAS G12D and G12V mutants, similar guanine nucleotide exchange assays were used with 2.5 nM as final concentration for the bodipy loaded KRAS proteins and with 4 hours and 3 hours incubation after adding GppNHp-SOS1 mixture for G12D and G12V respectively. A cyclic peptide described to selectively bind G12D mutant (Sakamoto et al., BBRC 484.3 (2017), 605-611) or internal compounds with confirmed binding were used as positive controls in the assay plates. Fluorescence intensities were measured on a PheraStar plate reader instrument (BMG Labtech) with excitation at 485 nm and emission at 520 nm.
Either GraphPad prism or XLfit was used to analyze the data. The IC50 values were derived by fitting the data to a four parameter logistic equation producing a sigmoidal dose-response curve with a variable Hill coefficient. Prism equation: Y=Bottom+(Top−Bottom)/(1+10^((Log lC50−X)*Hill slope)); XLfit equation: Y=(A+((B−A)/(1+((X/C)^D)))) where X is the logarithm of inhibitor concentration and Y is the response.

Assay [1] concerns MIA PaCa-2 (KRAS G12C) cells. The experiment in a line: Cellular pERK HTRF assay (KRAS_G12C pERK). It is filed as cell-based, human. To be noted: Homo sapiens, MIA PaCa-2, 4 hours incubation, read-out: G12C_pERK. As for the experimental part:
Example C: Cellular pERK HTRF Assay
MIA PaCa-2 (KRAS G12C; ATCC® CRL-1420), A427 (KRAS G12D; ATCC® HTB53), HPAF-II (KRAS G12D; ATCC® CRL-1997) and NCI-H838 (KRAS WT; ATCC® CRL-5844) cells are purchased from ATCC and maintained in RPMI 1640 media supplemented with 10% FBS (Gibco/Life Technologies). The cells are plated at 5000 cells per well (8 uL) into Greiner 384-well low volume, flat-bottom, tissue culture treated white plates and incubated overnight at 37° C., 5% CO2. The next morning, test compound stock solutions are diluted in media at 3× the final concentration, and 4 uL are added to the cells. The plate is mixed by gentle rotation for 30 seconds (250 rpm) at room temperature. The cells are incubated with the KRAS G12C and G12D compounds for 4 hours or 2 hours respectively at 37° C., 5% CO2.
4 uL of 4× lysis buffer with blocking reagent (1:25) (Cisbio) are added to each well and plates are rotated gently (300 rpm) for 30 minutes at room temperature. 4 uL per well of Cisbio anti Phospho-ERK 1/2 d2 is mixed with anti Phospho-ERK 1/2 Cryptate (1:1) are added to each well, mixed by rotation and incubated overnight in the dark at room temperature. Plates are read on the Pherastar plate reader at 665 nm and 620 nm wavelengths. IC50 determination is performed by fitting the curve of inhibitor percent inhibition versus the log of the inhibitor concentration using the GraphPad Prism 7 software.
For orientation: In TR-FRET formats the signal depends on donor and acceptor labels being close together.

Some results are limits rather than exact numbers.

Sequence of KRAS G12C (P01116 1-188 isoform P01116-2 G12C): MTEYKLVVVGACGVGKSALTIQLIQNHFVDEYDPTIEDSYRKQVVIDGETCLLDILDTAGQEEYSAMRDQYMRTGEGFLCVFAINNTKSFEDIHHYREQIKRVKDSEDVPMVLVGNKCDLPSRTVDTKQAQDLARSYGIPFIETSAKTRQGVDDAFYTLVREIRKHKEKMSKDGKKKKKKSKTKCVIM

Take `CC#CC(=O)N1CC[C@H](n2nnc3c(O[C@@H](C)CN(C)C)nc4c(F)c(-c5ccc(F)cc5)c(C)cc4c32)C[C@H]1CC#N` [Example 133, 2-((2S,4S)-1-(but-2-ynoyl)-4-(4-(((S)-1-(dimethylamino)propan-2-yl)oxy)-6-fluoro-7-(4-fluorophenyl)-8-methyl-1H-[1,2,3]triazolo[4,5-c]quinolin-1-yl)piperidin-2-yl)acetonitrile]: the IC50 (at KRAS G12C; in assay [1]) was at most 100 nM each time.

Take `Cc1cc2c(nc(N3CC(C)(N(C)C)C3)c3nnn([C@H]4CCN(C(=O)/C=C/C(F)F)[C@H](CC#N)C4)c32)c(F)c1-c1c(C)c(Cl)cc2[nH]ncc12` [Example 197a, 2-((2S,4S)-4-(7-(6-chloro-5-methyl-1H-indazol-4-yl)-4-(3-(dimethylamino)-3-methylazetidin-1-yl)-6-fluoro-8-methyl-1H-[1,2,3]triazolo[4,5-c]quinolin-1-yl)-1-((E)-4,4-difluorobut-2-enoyl)piperidin-2-yl)acetonitrile]: the IC50 (at KRAS G12C; in assay [1]) was at most 100 nM throughout. On to `CC#CC(=O)N1CC[C@H](n2nnc3c(N4CC(C)(N(C)C)C4)nc4c(F)c(-c5cccc(Cl)c5C)c(C(F)(F)F)cc4c32)C[C@H]1CC#N` [Example 239a, 2-((2S,4S)-1-(but-2-ynoyl)-4-(7-(3-chloro-2-methyl-phenyl)-4-(3-(dimethyl-amino)-3-methylazetidin-1-yl)-6-fluoro-8-(trifluoro-methyl)-1H-[1,2,3]triazolo-[4,5-c]quinolin-1-yl)piperidin-2-yl)acetonitrile], for which the IC50 (on KRAS G12C; in assay [1]) was at most 100 nM each time. Turning to `C=CC(=O)N1CC[C@H](n2nnc3c(N4CC(N(C)C)C4)nc4c(F)c(-c5ccccc5)c(Cl)cc4c32)C[C@H]1CC#N` [Example 154, 2-((2S,4S)-1-acryloyl-4-(8-chloro-4-(3-(dimethylamino)azetidin-1-yl)-6-fluoro-7-phenyl-1H-[1,2,3]triazolo[4,5-c]quinolin-1-yl)piperidin-2-yl)acetonitrile], the IC50 (at KRAS G12C; in assay [1]) was at most 100 nM throughout. Consider `CC#CC(=O)N1CC[C@H](n2nnc3c(OC[C@@H]4CCCN4C)nc4c(F)c(-c5c(C)c(Cl)cc6[nH]ncc56)c(Cl)cc4c32)C[C@H]1CC#N` [Example 182, 2-((2S,4S)-1-(but-2-ynoyl)-4-(8-chloro-7-(6-chloro-5-methyl-1H-indazol-4-yl)-6-fluoro-4-(((S)-1-methylpyrrolidin-2-yl)methoxy)-1H-[1,2,3]triazolo[4,5-c]quinolin-1-yl)piperidin-2-yl)acetonitrile], for which the IC50 (on KRAS G12C; in assay [1]) was at most 100 nM in each case.

With `Cc1cccc(-c2c(Cl)cc3c(nc(N4CC(N(C)C)C4)c4ncn([C@H]5CCN(C(=O)/C=C/CN(C)C)[C@H](CC#N)C5)c43)c2F)c1C(F)(F)F` [Example 262, 2-((2S,4S)-4-(8-chloro-4-(3-(dimethylamino)azetidin-1-yl)-6-fluoro-7-(3-methyl-2-(trifluoromethyl)phenyl)-1H-imidazo[4,5-c]quinolin-1-yl)-1-((E)-4-(dimethylamino)but-2-enoyl)piperidin-2-yl)acetonitrile], the IC50 (at KRAS G12C; in assay [1]) was at most 100 nM each time. `C=CC(=O)N1C[C@H](C)[C@@H](n2cnc3c(OC[C@@H]4CCCN4C)nc4c(F)c(-c5cc(O)cc6ccccc56)c(Cl)cc4c32)C1` (single isomer, unassigned) [Example 29b]: the IC50 (at KRAS G12C; in assay [1]) was at most 100 nM each time. As for `COC/C=C/C(=O)N1CC[C@H](n2nnc3c(OC[C@@H]4CCCN4C)nc4c(F)c(-c5c(C)c(Cl)cc6[nH]ncc56)c(Cl)cc4c32)C[C@H]1CC#N` (single isomer, unassigned) [Example 191a], the IC50 (at KRAS G12C; in assay [1]) was at most 100 nM in each case. With `C=CC(=O)N1CC[C@H](n2nnc3c(OC[C@@H]4CCCN4C)nc4c(F)c(-c5ccc(F)cc5)c(C)cc4c32)C[C@H]1CC#N` [Example 135, 2-((2S,4S)-1-acryloyl-4-(6-fluoro-7-(4-fluorophenyl)-8-methyl-4-(((S)-1-methylpyrrolidin-2-yl)methoxy)-1H-[1,2,3]triazolo[4,5-c]quinolin-1-yl)piperidin-2-yl)acetonitrile], the IC50 (on KRAS G12C; in assay [1]) was at most 100 nM each time. Turning to `C=CC(=O)N1CC[C@H](n2cnc3c(N4CC(N(C)C)C4)nc4c(F)c(-c5cncc6ccccc56)c(Cl)cc4c32)C[C@H]1CC#N` (single isomer, unassigned) [Example 73a], the IC50 (at KRAS G12C; in assay [1]) was at most 100 nM in each case. `C=CC(=O)N1CC[C@H](n2nnc3c(N4CC(N(C)C)C4)nc4c(Cl)c(-c5ccc(F)c6cccnc56)c(Cl)cc4c32)C[C@H]1CC#N` (single isomer, unassigned) [Example 271a]: the IC50 (on KRAS G12C; in assay [1]) was at most 100 nM throughout.

Regarding `COC/C=C/C(=O)N1CC[C@H](n2cnc3c(N4CC(C)(N(C)C)C4)nc4c(F)c(-c5c(C)c(Cl)cc6[nH]ncc56)c(Cl)cc4c32)C[C@H]1CC#N` (single isomer, unassigned) [Example 80a], the IC50 (at KRAS G12C; in assay [1]) was at most 100 nM throughout. For the compound `CC#CC(=O)N1CC[C@H](n2nnc3c(OC[C@@H]4CCCN4C)nc4c(F)c(-c5cccc(C)c5Cl)c(CCC#N)cc4c32)C[C@H]1CC#N` (single isomer, unassigned) [Example 242a], the IC50 (at KRAS G12C; in assay [1]) was at most 100 nM each time. Consider `COC/C=C/C(=O)N1CC[C@H](n2nnc3c(OC[C@@H]4CCCN4C)nc4c(F)c(-c5cccc(Cl)c5C)c(C)cc4c32)C[C@H]1CC#N` [Example 100, 2-((2S,4S)-4-(7-(3-chloro-2-methylphenyl)-6-fluoro-8-methyl-4-(((S)-1-methyl-pyrrolidin-2-yl)methoxy)-1H-[1,2,3]triazolo[4,5-c]quinolin-1-yl)-1-((E)-4-methoxybut-2-enoyl)piperidin-2-yl)acetonitrile], for which the IC50 (at KRAS G12C; in assay [1]) was at most 100 nM in each case. Regarding `C=CC(=O)N1CC[C@H](n2cnc3c(N4CC(N(C)C)C4)nc4cc(-c5cccc(Cl)c5C)c(Cl)cc4c32)C[C@H]1CC#N` [Example 171, 2-((2S,4S)-1-acryloyl-4-(8-chloro-7-(3-chloro-2-methylphenyl)-4-(3-(dimethylamino)azetidin-1-yl)-1H-imidazo[4,5-c]quinolin-1-yl)piperidin-2-yl)acetonitrile], the IC50 (at KRAS G12C; in assay [1]) was at most 100 nM in each case. With `C=CC(=O)N1CCC(n2cnc3c(OCc4ccnn4C)nc4c(F)c(-c5cc(O)cc6ccccc56)c(Cl)cc4c32)CC1` [Example 8, 1-(4-(8-chloro-6-fluoro-7-(3-hydroxynaphthalen-1-yl)-4-((1-methyl-1H-pyrazol-5-yl)methoxy)-1H-imidazo[4,5-c]quinolin-1-yl)piperidin-1-yl)prop-2-en-1-one], at KRAS G12C, the IC50 was in the range of 100 to 1000 nM. Regarding `C=CC(=O)N1CC(n2c(=O)[nH]c3c(=O)n(-c4ccccc4)c4nc(-c5cc(O)cc6ccccc56)c(F)cc4c32)C1` [Example 28, 1-(1-acryloylazetidin-3-yl)-8-fluoro-7-(3-hydroxynaphthalen-1-yl)-5-phenyl-3,5-dihydro-1H-imidazo[4,5-c][1,8]naphthyridine-2,4-dione], the IC50 on KRAS G12C was in the range of 100 to 1000 nM. Still for that read-out and setting: the value for `C=CC(=O)N1CCC(n2cnc3c(OC[C@@H]4CCCN4C)nc4c(F)c(-c5cccc(O)c5F)c(Cl)cc4c32)CC1` (single isomer, unassigned) [Example 3a] was 1000 to 5000 nM.
